Columns and labels:
[1] = In vivo pharmacokinetics in rats; conditions: SD rats
Procedure: Test Example 4 Study of In Vivo Pharmacokinetics of the Present Compounds in Rats
Male SD rats (Shanghai Sippr-BK Experimental Animal Co., Ltd) were purchased and kept in Shanghai University of Traditional Chinese Medicine animal center (approved by the ethics committee of Shanghai University of Traditional Chinese Medicine) for 7 days. The rats were randomly divided into 4 groups (˜220 g), 3 rats for each group. Animals were administered intravenously (iv) and orally (po). The rats in po group were starved for 12 hours before administration. After administration, blood was collected from the orbital venous plexus at 0 min (before administration), 2 min, 5 min, 15 min, 30 min, 1 h, 2 h, 4 h, 6 h, 8 h and 24 h. About 200 ul of blood was collected at each time point, and were collected in 1.5 ml centrifuge tube containing heparin sodium. The upper blood […] were collected by centrifugation (8000 rpm, 3 min) and stored at −80° C.
Preparation of test samples: 125.0 mg compound 34 or compound 35 was weighed and added with 4 ml ultrapure water, and 25 ul methanesulfonic acid was added with stirring. The mixture was further stirred until clear and transparent (pH ˜3.32). 1 ml of the above solution was added with 4 ml of ultra-pure water to obtain 5 mg/ml of compound 34 or compound 35 solution (pH=3.5).
Dose and mode of administration: single oral dose (100 mpk) and single intravenous dose (5 mpk).
Administration volume: 4 ml/kg (orally), 1 ml/kg (intravenously).
The plasma concentration of the compound was determined by LC-MS/MS (AB scexqtrap@4500 LCMS/MS system). Pharmacokinetic parameters were calculated by WinNonlin (a professional software). The experiment was repeated once.

[2] = system: Pfeiffer cells (EZH2 A677G); assay: Compound washout effect on in vitro growth of Pfeiffer cells (irreversible inhibition); assay type: cell-based, Human; conditions: for Pfeiffer cells growth rate (%) (10 days), Continuous: continuous treatment; for Pfeiffer cells growth rate (%) (10 days), Washout: washout after 12 h
Procedure: The test of the compound washout effect on the in vitro growth inhibition of human diffuse large cell B lymphoma lymphocyte Pfeiffer (ATCC) expressing EZH2 A677G mutant protein was performed as follows.
Log-phase Pfeiffer cells were centrifuged directly (1700 rpm, 3 min), and the supernatant was discarded and the cells were counted. Cells were prepared with the complete medium (2×10^4 cells per ml), inoculated to 96-well plates (Corning), 200 μl per well, and incubated overnight at 37° C., 5% CO2. […] The cells were further cultured for 12 h. The cells in half of the test wells were then collected by centrifugation (parallel to 2 wells), and washed three times with serum-free cell culture medium, and then resuspended in a same volume of complete cell culture medium (200 μl). It was further cultured together with the untreated cells for 10 days at 37° C., 5% CO2.

[3] = system: Pfeiffer (EZH2 A677G); assay: In vitro 50% growth inhibition (GI50), MTT/CCK8, Pfeiffer cells; assay type: cell-based, Human; conditions: Homo sapiens, Pfeiffer, 240 h; Drug treatment for 10 days
[4] = system: Karpas-422 (EZH2 Y641N); assay: In vitro 50% growth inhibition (GI50), MTT/CCK8, Karpas-422 cells; assay type: cell-based; conditions: Homo sapiens, KARPAS-422, 144 h; Drug treatment for 6 days
[5] = system: SU-DHL-8 (EZH2 WT); assay: In vitro 50% growth inhibition (GI50), MTT/CCK8, SU-DHL-8 cells; assay type: cell-based; conditions: Homo sapiens, SU-DHL-8, 144 h; Drug treatment for 6 days

C=CC(=O)N1CCC(N(CC)c2cc(-c3ccc(CN4CCCCC4)cc3)cc(C(=O)NCc3c(C)cc(C)[nH]c3=O)c2C)CC1 [Example 34, N-(4,6-dimethyl-2-oxo-1,2-dihydro-pyridin-3-ylmethyl)-5-[(1-acryloyl-piperidin-4-yl)-ethyl-amino]-4-methyl-4′-(piperidin-1-ylmethyl)-[1,1′-biphenyl]-3-carboxamide]
bioavailability, in words [1]: good bioavailability | bioavailability ([1]; male, rat, plasma, IV 5 mg/kg, PO 100 mg/kg, methanesulfonic acid aqueous solution): 48.8% | Pfeiffer cells growth rate (%) (10 days), Continuous ([2]; Drug concentration 25 nM): 0% | Pfeiffer cells growth rate (%) (10 days), Washout ([2]; Drug concentration 25 nM): 0% | Pfeiffer cells growth rate (%) (10 days), Continuous ([2]; Drug concentration 50 nM): 0% | Pfeiffer cells growth rate (%) (10 days), Washout ([2]; Drug concentration 50 nM): 0% | Pfeiffer cells growth rate (%) (10 days), Continuous ([2]; Drug concentration 100 nM): 0% | Pfeiffer cells growth rate (%) (10 days), Washout ([2]; Drug concentration 100 nM): 0% | reversibility of inhibitory effect on cell growth in vitro, in words ([2]; washout treatment of Pfeiffer cells): potential irreversible inhibitory effect | GI50 [3]: 0.001 to 0.01 µM | GI50 [4]: 0.01 to 0.1 µM | GI50 [5]: > 1 µM

From US11214561B2, “Histone methyltransferase EZH2 inhibitor, preparation method and pharmaceutical use thereof” (ANCUREALL PHARMACEUTICAL (SHANGHAI) CO., LTD., priority 2017, dated 2022)
